Experimental data from ChEMBL document CHEMBL3046890, “Synthesis and Herbicidal Activity of Sulfonylureas; SL-950 and Its Related Compounds” (1995).

Experiments:
Type in all cases: functional
Settings in all cases: read-out: GI
[1] = test system: Triticum aestivum; experiment: Post emergence phyototoxic activity against Triticum aestivum (wheat) plants assessed as inhibition of plant growth at 125 g ai/ha measured 22 to 37 days after compound application under greenhouse conditions
[2] = test system: Zea mays; experiment: Post emergence phyototoxic activity against Zea mays (maize) plants assessed as inhibition of plant growth at 125 g ai/ha measured 22 to 37 days after compound application under greenhouse conditions
[3] = test system: Echinochloa crus-galli; experiment: Post emergence herbicidal activity against Echinochloa crus-galli (barnyard grass) assessed as inhibition of weed growth at 125 g ai/ha measured 22 to 37 days after compound application under greenhouse conditions
[4] = test system: Amaranthus viridis; experiment: Post-emergence herbicidal activity against Amaranthus viridis assessed as inhibition of weed growth at 125 g ai/ha measured 22 to 37 days after compound application under greenhouse conditions
[5] = test system: Sida spinosa; experiment: Post-emergence herbicidal activity against Sida spinosa assessed as inhibition of weed growth at 125 g ai/ha measured 22 to 37 days after compound application under greenhouse conditions
[6] = test system: Ipomoea purpurea; experiment: Post emergence herbicidal activity against Ipomoea purpurea (common morning-glory) assessed as inhibition of weed growth at 125 g ai/ha measured 22 to 37 days after compound application under greenhouse conditions
[7] = test system: Persicaria longiseta; experiment: Post-emergence herbicidal activity against Persicaria longiseta assessed as inhibition of weed growth at 125 g ai/ha measured 22 to 37 days after compound application under greenhouse conditions
[8] = test system: Xanthium strumarium; experiment: Post emergence herbicidal activity against Xanthium strumarium (cocklebur) assessed as inhibition of weed growth at 125 g ai/ha measured 22 to 37 days after compound application under greenhouse conditions

## COC(=O)CNC(=O)c1cccnc1S(=O)(=O)NC(=O)Nc1nc(OC)cc(OC)n1
[1]
  inhibition of growth at 125 g/ha: 0%
[2]
  inhibition of growth at 125 g/ha: 0%
[3]
  inhibition of growth at 125 g/ha: 0%
[4]
  inhibition of growth at 125 g/ha: 0%
[5]
  inhibition of growth at 125 g/ha: 0%
[6]
  inhibition of growth at 125 g/ha: 0%

## COc1nc(C)nc(NC(=O)NS(=O)(=O)c2ncccc2C(=O)N(C)C)n1
[1]
  inhibition of growth at 125 g/ha: 0%
[2]
  inhibition of growth at 125 g/ha: 0%
[3]
  inhibition of growth at 125 g/ha: 0%
[5]
  inhibition of growth at 125 g/ha: 0%
[6]
  inhibition of growth at 125 g/ha: 0%

## COc1cc(OC)nc(NC(=O)NS(=O)(=O)c2ncccc2C(=O)N(C)OC)n1
[1]
  inhibition of growth at 125 g/ha: 100%
[2]
  inhibition of growth at 125 g/ha: 0%
[3]
  inhibition of growth at 125 g/ha: 100%
[4]
  inhibition of growth at 125 g/ha: 100%

## COc1nc(NC(=O)NS(=O)(=O)c2ncccc2C(=O)N(C)C)nc(OC)n1
[1]
  inhibition of growth at 125 g/ha: 0%
[2]
  inhibition of growth at 125 g/ha: 0%
[7]
  inhibition of growth at 125 g/ha: 0%
[3]
  inhibition of growth at 125 g/ha: 0%
[4]
  inhibition of growth at 125 g/ha: 0%
[5]
  inhibition of growth at 125 g/ha: 0%
[6]
  inhibition of growth at 125 g/ha: 0%

## CCOc1cc(OC)nc(NC(=O)NS(=O)(=O)c2ncccc2C(=O)N(C)C)n1
[2]
  inhibition of growth at 125 g/ha: 0%
[4]
  inhibition of growth at 125 g/ha: 100%

## COc1cc(C)nc(NC(=O)NS(=O)(=O)c2ncccc2C(=O)N(C)C)n1
[2]
  inhibition of growth at 125 g/ha: 0%

## CN(C)C(=O)c1cccnc1S(=O)(=O)NC(=O)Nc1nc(OC(F)F)cc(OC(F)F)n1
[1]
  inhibition of growth at 125 g/ha: 0%
[7]
  inhibition of growth at 125 g/ha: 0%
[5]
  inhibition of growth at 125 g/ha: 0%
[8]
  inhibition of growth at 125 g/ha: 0%

## COC(=O)N(C)C(=O)c1cccnc1S(=O)(=O)NC(=O)Nc1nc(OC)cc(OC)n1
[2]
  inhibition of growth at 125 g/ha: 0%

## CSc1cc(SC)nc(NC(=O)NS(=O)(=O)c2ncccc2C(=O)N(C)C)n1
[2]
  inhibition of growth at 125 g/ha: 0%
[7]
  inhibition of growth at 125 g/ha: 0%
[3]
  inhibition of growth at 125 g/ha: 0%
[4]
  inhibition of growth at 125 g/ha: 0%
[5]
  inhibition of growth at 125 g/ha: 0%
[8]
  inhibition of growth at 125 g/ha: 0%

## COc1cc(OC)nc(NC(=O)NS(=O)(=O)c2ncccc2C(=O)NC2CC2)n1
[2]
  inhibition of growth at 125 g/ha: 0%
[3]
  inhibition of growth at 125 g/ha: 100%

## COc1cc(SC)nc(NC(=O)NS(=O)(=O)c2ncccc2C(=O)N(C)C)n1
[2]
  inhibition of growth at 125 g/ha: 0%
[4]
  inhibition of growth at 125 g/ha: 100%

## CCC(=O)N(CC)C(=O)c1cccnc1S(=O)(=O)NC(=O)Nc1nc(OC)cc(OC)n1
[2]
  inhibition of growth at 125 g/ha: 0%
[4]
  inhibition of growth at 125 g/ha: 100%

## COc1cc(Cl)nc(NC(=O)NS(=O)(=O)c2ncccc2C(=O)N(C)C)n1
[2]
  inhibition of growth at 125 g/ha: 0%
[5]
  inhibition of growth at 125 g/ha: 0%

## CCN(C)C(=O)c1cccnc1S(=O)(=O)NC(=O)Nc1nc(OC)cc(OC)n1
[2]
  inhibition of growth at 125 g/ha: 0%
[3]
  inhibition of growth at 125 g/ha: 100%
[8]
  inhibition of growth at 125 g/ha: 100%

## CCNC(=O)c1cccnc1S(=O)(=O)NC(=O)Nc1nc(OC)cc(OC)n1
[2]
  inhibition of growth at 125 g/ha: 0%

## C=C(C)NC(=O)c1cccnc1S(=O)(=O)NC(=O)Nc1nc(OC)cc(OC)n1
[2]
  inhibition of growth at 125 g/ha: 0%

## COc1cc(OC)nc(NC(=O)NS(=O)(=O)c2ncccc2C(=O)N2CCCCC2)n1
[2]
  inhibition of growth at 125 g/ha: 0%

## COc1cc(OC)nc(NC(=O)NS(=O)(=O)c2ncccc2C(=O)N2CCOCC2)n1
[1]
  inhibition of growth at 125 g/ha: 0%
[2]
  inhibition of growth at 125 g/ha: 0%

## C=CCNC(=O)c1cccnc1S(=O)(=O)NC(=O)Nc1nc(OC)cc(OC)n1
[2]
  inhibition of growth at 125 g/ha: 0%

## COc1cc(OC(F)F)nc(NC(=O)NS(=O)(=O)c2ncccc2C(=O)N(C)C)n1
[2]
  inhibition of growth at 125 g/ha: 0%

## Cc1cc(C)nc(NC(=O)NS(=O)(=O)c2ncccc2C(=O)N(C)C)n1
[1]
  inhibition of growth at 125 g/ha: 0%
[2]
  inhibition of growth at 125 g/ha: 0%
[7]
  inhibition of growth at 125 g/ha: 0%
[3]
  inhibition of growth at 125 g/ha: 0%
[5]
  inhibition of growth at 125 g/ha: 0%
[6]
  inhibition of growth at 125 g/ha: 0%

## COc1cc(OC)nc(NC(=O)NS(=O)(=O)c2ncccc2C(=O)N(C)CC(F)(F)F)n1
[2]
  inhibition of growth at 125 g/ha: 0%

## CCCCNC(=O)c1cccnc1S(=O)(=O)NC(=O)Nc1nc(OC)cc(OC)n1
[2]
  inhibition of growth at 125 g/ha: 0%

## COc1cc(OC)nc(NC(=O)NS(=O)(=O)c2ncccc2C(=O)N(C)c2ccccc2)n1
[2]
  inhibition of growth at 125 g/ha: 0%

## COc1cc(OC)nc(NC(=O)NS(=O)(=O)c2ncccc2C(=O)N(C)c2ccc(F)cc2F)n1
[1]
  inhibition of growth at 125 g/ha: 100%
[5]
  inhibition of growth at 125 g/ha: 0%

## COc1cc(OC)nc(NC(=O)NS(=O)(=O)c2ncccc2C(=O)NCC(F)(F)F)n1
[2]
  inhibition of growth at 125 g/ha: 0%

## CNC(=O)c1cccnc1S(=O)(=O)NC(=O)Nc1nc(OC)cc(OC)n1
[2]
  inhibition of growth at 125 g/ha: 0%
[7]
  inhibition of growth at 125 g/ha: 100%
[3]
  inhibition of growth at 125 g/ha: 100%
[4]
  inhibition of growth at 125 g/ha: 100%
[8]
  inhibition of growth at 125 g/ha: 100%

## COc1cc(OC)nc(NC(=O)NS(=O)(=O)c2ncccc2C(=O)N(C)c2ccc(Cl)cc2)n1
[2]
  inhibition of growth at 125 g/ha: 0%
[8]
  inhibition of growth at 125 g/ha: 100%
